In patent publication US10329283B2, “G protein-coupled receptor kinase inhibitors and methods for use of the same” (THE REGENTS OF THE UNIVERSITY OF MICHIGAN, priority 2015, dated 2019):
Where a name gives a salt, the structure may show the parent alone.

Legend:
GRK1 = target: T1, GRK1 (Bos taurus, UniProt P28327); assay: GRK1 kinetic assay for inhibition of GRKs (phosphorimaging); format: biochemical; settings: 50 nM GRK, 5 μM ATP, 500 nM bROS or tubulin, 5 min
T1 sequence (P28327 1-535 limits assumed): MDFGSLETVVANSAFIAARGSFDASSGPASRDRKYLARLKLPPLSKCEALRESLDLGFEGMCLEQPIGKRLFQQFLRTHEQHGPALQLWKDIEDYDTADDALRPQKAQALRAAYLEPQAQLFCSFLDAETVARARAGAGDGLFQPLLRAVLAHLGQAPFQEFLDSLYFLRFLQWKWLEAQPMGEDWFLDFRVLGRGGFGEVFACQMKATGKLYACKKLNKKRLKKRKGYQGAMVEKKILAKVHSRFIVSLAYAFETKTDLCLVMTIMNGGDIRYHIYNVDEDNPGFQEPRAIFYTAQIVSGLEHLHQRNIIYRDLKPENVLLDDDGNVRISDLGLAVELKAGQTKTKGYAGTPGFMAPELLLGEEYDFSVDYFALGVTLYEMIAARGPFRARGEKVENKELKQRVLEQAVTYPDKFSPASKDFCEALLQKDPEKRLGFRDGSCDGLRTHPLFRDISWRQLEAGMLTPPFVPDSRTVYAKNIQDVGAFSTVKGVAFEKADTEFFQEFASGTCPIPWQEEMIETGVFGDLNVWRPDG
Description: (§1) The low salt concentration and DDM were used to maximize GRK activity and disrupt small molecule aggregates from forming, respectively. […] Data was analyzed and inhibition curves were fit via GraphPad Prism.

GRK2 [1] = target: T2, GRK2 (Homo sapiens, UniProt P25098); assay: GRK2 kinetic assay for inhibition of GRKs (phosphorimaging); format: biochemical; settings: 50 nM GRK, 5 μM ATP, 500 nM bROS or tubulin, 5 min
T2 sequence (P25098 1-689): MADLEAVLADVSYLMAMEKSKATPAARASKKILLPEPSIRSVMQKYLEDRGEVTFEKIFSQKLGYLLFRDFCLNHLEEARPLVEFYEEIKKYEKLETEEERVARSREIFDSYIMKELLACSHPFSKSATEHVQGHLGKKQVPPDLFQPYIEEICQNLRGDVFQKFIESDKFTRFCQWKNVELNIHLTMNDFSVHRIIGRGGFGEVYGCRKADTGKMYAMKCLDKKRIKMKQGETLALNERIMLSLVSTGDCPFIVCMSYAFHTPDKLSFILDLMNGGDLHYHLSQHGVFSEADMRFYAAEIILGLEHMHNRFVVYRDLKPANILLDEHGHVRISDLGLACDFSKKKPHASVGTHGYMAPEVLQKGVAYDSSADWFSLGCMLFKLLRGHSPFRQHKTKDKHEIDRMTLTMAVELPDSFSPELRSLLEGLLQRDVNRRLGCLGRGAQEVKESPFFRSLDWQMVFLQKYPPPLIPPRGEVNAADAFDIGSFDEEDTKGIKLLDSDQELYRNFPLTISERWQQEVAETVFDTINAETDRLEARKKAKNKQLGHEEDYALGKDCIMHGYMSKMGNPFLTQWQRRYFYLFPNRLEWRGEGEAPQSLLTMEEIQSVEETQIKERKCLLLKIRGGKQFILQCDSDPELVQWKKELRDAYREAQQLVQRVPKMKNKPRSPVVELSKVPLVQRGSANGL
Description: as §1

GRK5 = GRK5 (Homo sapiens, UniProt P34947); assay: GRK5 kinetic assay for inhibition of GRKs (phosphorimaging); format: biochemical; settings: 50 nM GRK, 5 μM ATP, 500 nM bROS or tubulin, 5 min
Description: as §1

[2] = in words; Thal et al., Mol Pharmacol 2011; cited from earlier work
GRK2 [3] = target: T2, GRK2; settings: in words; Setyawan et al. 1999, Tesmer et al. 2010; cited from earlier work

Chain of GRK5 (P34947 whole entry, species assumed): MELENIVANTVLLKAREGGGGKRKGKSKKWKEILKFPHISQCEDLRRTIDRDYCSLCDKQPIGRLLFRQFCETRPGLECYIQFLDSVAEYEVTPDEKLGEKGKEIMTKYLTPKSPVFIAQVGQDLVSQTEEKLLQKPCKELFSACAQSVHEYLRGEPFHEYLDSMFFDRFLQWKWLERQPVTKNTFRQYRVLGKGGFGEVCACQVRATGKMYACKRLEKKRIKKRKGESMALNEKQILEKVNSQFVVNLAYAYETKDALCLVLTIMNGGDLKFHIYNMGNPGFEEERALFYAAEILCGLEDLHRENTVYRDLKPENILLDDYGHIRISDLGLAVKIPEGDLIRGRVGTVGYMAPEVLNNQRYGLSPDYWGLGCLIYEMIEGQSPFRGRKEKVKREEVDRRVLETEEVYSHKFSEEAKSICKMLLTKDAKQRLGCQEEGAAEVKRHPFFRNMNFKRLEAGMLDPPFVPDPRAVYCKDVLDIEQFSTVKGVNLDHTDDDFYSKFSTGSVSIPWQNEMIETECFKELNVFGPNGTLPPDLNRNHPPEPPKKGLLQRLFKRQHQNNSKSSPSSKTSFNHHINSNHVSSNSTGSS

SMILES | IC50 (GRK1) | IC50 (GRK2 [1]) | IC50 (GRK5) | bioavailability [2] | inhibition of GRK2 (GRK2 [3])
O=C(NCc1c(C(F)(F)F)cccc1C(F)(F)F)c1cc([C@@H]2CCNC[C@H]2COc2ccc3c(c2)OCO3)ccc1F [Example E14, 5-((3S,4R)-3-((benzo[d][1,3]dioxol-5-yloxy)methyl)piperidin-4-yl)-N-(2,6-bis(trifluoromethyl)benzyl)-2-fluorobenzamide hydrochloride] | 23.6 µM | 0.77 µM | 41.1 µM |  | 
COc1cccc(OC)c1CNC(=O)c1cc([C@@H]2CCNC[C@H]2COc2ccc3c(c2)OCO3)ccc1F [Example E15, 5-((3S,4R)-3-((benzo[d][1,3]dioxol-5-yloxy)methyl)piperidin-4-yl)-N-(2,6-dimethoxybenzyl)-2-fluorobenzamide hydrochloride] | 22 µM | 1.39 µM | > 100 µM |  | 
O=C(NCc1c(Cl)cccc1Cl)c1cc([C@@H]2CCNC[C@H]2COc2ccc3c(c2)OCO3)ccc1F [Example E16, 5-((3S,4R)-3-((benzo[d][1,3]dioxol-5-yloxy)methyl)piperidin-4-yl)-N-(2,6-dichlorobenzyl)-2-fluorobenzamide hydrochloride] | 16.6 µM | 1.21 µM | 33.6 µM |  | 
Fc1ccc([C@@H]2CCNC[C@H]2COc2ccc3[nH]ncc3c2)cc1 [Example E18, 5-(((3S,4R)-4-(4-fluorophenyl)piperidin-3-yl)methoxy)-1H-indazole] | 65.7 µM | 0.07 µM | 12.8 µM |  | 
Fc1ccc([C@@H]2CCNC[C@H]2COc2cc3cn[nH]c3cc2F)cc1 [Example E30, 6-fluoro-5-(((3S,4R)-4-(4-fluorophenyl)piperidin-3-yl)methoxy)-1H-indazole] | 3.67 µM | 0.14 µM | 0.82 µM |  | 
COc1cccc(OC)c1CNC(=O)c1cc([C@@H]2CCNC[C@H]2COc2cc3cn[nH]c3cc2F)ccc1F [Example E31, N-(2,6-dimethoxybenzyl)-2-fluoro-5-((3S,4R)-3-(((6-fluoro-1H-indazol-5-yl)oxy)methyl)piperidin-4-yl)benzamide] | 40.1 µM | 0.4 µM | 8.12 µM |  | 
CN1CC[C@@H](c2ccc(F)cc2)[C@H](COc2ccc3[nH]ncc3c2)C1 [Example E32, 5-(((3S,4R)-4-(4-fluorophenyl)-1-methylpiperidin-3-yl)methoxy)-1H-indazole] | 51.8 µM | 0.29 µM | 33 µM |  | 
CCCn1c(CNc2cccc(C(=O)NCc3c(F)cccc3F)c2)nnc1-c1ccncn1 [Takeda103A] |  |  |  | poor bioavailability | 
O=C(N[C@@H]1CNCCC[C@H]1OC(=O)c1cc(O)c(C(=O)c2c(O)cccc2C(=O)O)c(O)c1)c1ccc(O)cc1 [balanol] |  |  |  |  | low nanomolar range
